# Tests used:
# Type in all cases: in vivo, rat
# CPT1M mRNA = CPT1M mRNA in hypothalamic nuclei micro punches by real-time PCR after ICV injection; details: 3 days after ICV injection
# Protocol: (§1) Surgical implantation of ICV cannulae was performed on day 1 (˜3 weeks prior to the in vivo study). Full recovery of body weight and food intake was achieved by day 7. Rats randomized for ribozyme treatment received an ICV injection of CPT1L-Ribo, CPT inhibitors or controls on day 17. The experimental group treated with TDGA received ICV injection of the inhibitor on day 21, 6 hr prior to the harvesting of brains. Panels B. and C. show quantitation of CPT1L (B) and CPT1M (C) mRNA by real-time PCR. RNA was purified from individual hypothalamic nuclei (PVN, LHA, and arcuate), which were obtained by micro punch technique 3 days after ICV injection of pTarget control (▪; N=4) or CPT1LRibo (□; N=5). […] CPT1 activity was measured in the particulate fraction of protein extracts from animals treated with ICV control injections (▪; N=6, receiving aCSF+2% DMSO or Control Ribo), TDGA ( ?; N=6), or CPTL-Ribo (□; N=5). […] Levels of stearoyl-CoA (F) and oleyl-CoA (E) respectively were measured by HPLC in arcuate of rats injected ICV with control compound (▪; ST1340) or ST1326 (□).
# (§2) ICV catheters were implanted in male Sprague-Dawley rats by stereotaxic surgery (Obici et al., 2002a; Obici et al., 2001; Liu et al., 1998). […] Thus, we next measured CPT1 activity in ARC and in whole hypothalamus. […]
# (§3) Quantitation of CPT1 and neuropeptides mRNA by Northern and real-time PCR. […]
# CPT1L mRNA = CPT1L mRNA in hypothalamic nuclei micro punches by real-time PCR after ICV injection; details: 3 days after ICV injection; adjusted for β-actin
# Protocol: as §1, §2, §3
# [1] = system: NPY, AgRP and POMC mRNA in ARC; assay: Neuropeptide (NPY, AgRP, POMC) mRNA in ARC by real-time PCR; details: ICV
# Description: In order to begin investigating the mechanisms responsible for the anorectic properties of ARC CPT1 inhibition, we next analyzed the effect of CPT1L-Ribo on the gene expression of key ARC peptides. […] Overall, these anorectic effects support the notion that changes in the neuronal levels of LC-CoAs may directly control food intake via their action on discrete hypothalamic centers. Furthermore, increases in LC-CoAs levels in selective hypothalamic neurons are likely to account for the potent effects of oleic acid and of FAS inhibitors on food intake (Loftus et al., 2000; Obici et al., 2002a; Makimura et al., 2001; Shimokawa et al., 2002).
# Total RNA was isolated with Trizol (Invitrogen, Carlsbad, Calif.) from individual hypothalamic nuclei (i.e. Arcuate, PVN etc.). Single strand cDNA synthesis and real-time PCR reactions were performed as previously described (Obici et al., 2002b). CPT1L and CPT1M mRNA specific primers contained the following sequences: CPT1L forward (F) 5′-[…]-3′ (SEQ ID NO:5) and reverse (R) primer, 5′-[…]-3′ (SEQ ID NO:6); CPT1M F 5′-[…]-3′ (SEQ ID NO:7) and R 5′-[…]-3′ (SEQ ID NO:8). Hypothalamic neuropeptides expression was performed by real-time PCR using the following primers: NPY-F 5′-[…]-3′ (SEQ ID NO:9), R 5′-[…]-3′ (SEQ ID NO:10), POMC-F 5′-CCAGGCAACGGAGATGAAC-3′ (SEQ ID NO:11), R 5′-TCACTGGCCCTTCTTGTGC-3′ (SEQ ID NO:12), AgRP-F 5′-[…]-3′ (SEQ ID NO:13), R 5′-[…]-3′ (SEQ ID NO:14), and β-actin F 5′-[…]-3′ (SEQ ID NO:15), R 5′-[…]-3′ (SEQ ID NO:16). Transcript levels are expressed as copy number of each gene normalized to copy number for β-actin. Copy number for each transcript was measured against a standard curve, which was obtained by PCR runs of each primer set with serial dilutions of a plasmid containing the target template sequences.
substance,measurement,setting,value
"CPT1L-Ribo: plasmid (pTarget, CMV promoter) expressing a hammerhead ribozyme that specifically cleaves rat CPT1L mRNA, complexed to PEI for ICV injection (DNA CUGUACCAAAGAGCUGUAGAGUCCGUGAGGACGAAACGCCGCUCACAAUG)",CPT1M mRNA expression in hypothalamic nuclei,CPT1M mRNA,not appreciably altered
same,CPT1L mRNA in the arcuate nuclei (ARC),CPT1L mRNA,marked decrease
same,expression of POMC in the ARC,[1],not significantly altered
same,AgRP mRNA in the ARC,[1]; compared with Control-Ribo,marked decrease
same,NPY mRNA in the ARC,[1]; compared with Control-Ribo,marked decrease
